Test results from ChEMBL document CHEMBL1151963 (J Med Chem, 2009).

Experiments:
[1] = Aqueous solubility at pH 3; format: physicochemical; details: buffer
LNCaP = experiment: Cytotoxicity against human LNCAP cells after 3 days by MTS assay; format: functional, cell-based; details: 72 h
[2] = biological target: Serine/threonine-protein kinase mTOR (Homo sapiens, UniProt P42345); experiment: Inhibition of flag-tagged truncated human mTOR (1360-2549) expressed in HEK293 cells by DELFIA assay; format: cell-based
[3] = Metabolic stability in nude mouse microsomes assessed as half life at 1 uM by HPLC-MS/MS analysis; format: ADME, Microsome
[4] = biological target: Phosphatidylinositol 4,5-bisphosphate 3-kinase catalytic subunit alpha isoform (Homo sapiens, UniProt P42336); experiment: Inhibition of PI3Kalpha expressed in Escherichia coli by microtiter plate-based fluorescence polarization assay
Phosphatidylinositol 4,5-bisphosphate 3-kinase catalytic subunit alpha isoform, sequence (P42336 whole entry, canonical isoform): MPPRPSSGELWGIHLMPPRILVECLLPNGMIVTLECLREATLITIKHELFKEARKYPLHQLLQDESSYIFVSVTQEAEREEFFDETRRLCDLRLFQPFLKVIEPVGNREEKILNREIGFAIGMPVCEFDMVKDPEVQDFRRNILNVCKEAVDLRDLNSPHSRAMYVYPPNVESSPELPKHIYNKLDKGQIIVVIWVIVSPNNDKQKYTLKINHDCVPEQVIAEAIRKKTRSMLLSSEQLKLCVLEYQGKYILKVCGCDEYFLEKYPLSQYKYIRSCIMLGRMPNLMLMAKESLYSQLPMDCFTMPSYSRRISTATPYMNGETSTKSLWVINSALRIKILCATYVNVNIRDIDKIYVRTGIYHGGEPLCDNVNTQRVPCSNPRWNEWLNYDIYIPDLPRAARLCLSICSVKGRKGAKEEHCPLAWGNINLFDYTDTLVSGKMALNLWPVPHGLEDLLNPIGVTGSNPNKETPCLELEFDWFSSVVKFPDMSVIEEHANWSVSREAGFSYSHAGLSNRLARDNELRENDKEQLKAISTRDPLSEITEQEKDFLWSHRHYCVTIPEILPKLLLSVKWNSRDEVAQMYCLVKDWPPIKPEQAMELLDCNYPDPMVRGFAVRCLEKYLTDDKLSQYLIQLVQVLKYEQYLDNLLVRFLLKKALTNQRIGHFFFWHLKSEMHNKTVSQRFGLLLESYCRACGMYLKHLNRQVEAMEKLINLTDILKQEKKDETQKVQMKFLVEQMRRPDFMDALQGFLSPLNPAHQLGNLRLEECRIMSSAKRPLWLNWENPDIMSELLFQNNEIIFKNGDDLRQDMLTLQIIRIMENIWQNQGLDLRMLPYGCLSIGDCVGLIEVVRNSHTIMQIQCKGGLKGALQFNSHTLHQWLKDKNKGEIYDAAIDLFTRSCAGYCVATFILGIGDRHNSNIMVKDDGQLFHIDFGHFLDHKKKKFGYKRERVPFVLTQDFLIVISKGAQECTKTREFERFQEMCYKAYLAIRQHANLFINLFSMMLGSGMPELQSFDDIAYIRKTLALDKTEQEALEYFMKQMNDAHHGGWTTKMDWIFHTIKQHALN

Compound	solubility [1]	IC50 [2]	half-life at 1 µM [3]	IC50 ([2]; hek293)	IC50 [4]	IC50 (LNCaP)
COC(=O)N1CCC(n2ncc3c(N4CCOCC4)nc(-c4ccc(NC(=O)Nc5ccc(N6CCN(C)CC6)cc5)cc4)nc32)CC1	> 100 µg/mL					
CNC(=O)Nc1ccc(-c2nc(N3CCOCC3)c3cnn(C4CCN(C(=O)N(C)C)CC4)c3n2)cc1		1.1 nM	> 30 min			197 nM
CCNC(=O)Nc1ccc(-c2nc(N3CCOCC3)c3cnn(C4CCN(C(=O)OC)CC4)c3n2)cc1		0.32 nM	> 30 min			55 nM
CNC(=O)Nc1ccc(-c2nc(N3CCOCC3)c3cnn(C4CCN(C(C)=O)CC4)c3n2)cc1			27 min	2.1 nM		817 nM
COC(=O)N1CCC(n2ncc3c(N4CCOCC4)nc(-c4ccc(NC(=O)Nc5ccncc5)cc4)nc32)CC1			9 min	0.3 nM	18 nM	60 nM

Now from value to compound, other results behind:

solubility [1]	IC50 [2]	half-life at 1 µM [3]	IC50 ([2]; hek293)	IC50 [4]	Compound	IC50 (LNCaP)
	9.6 nM	5 min			Oc1cccc(-c2nc(N3CCOCC3)c3cnn(C4CCN(Cc5cccnc5)CC4)c3n2)c1	53 nM
	22 nM	2 min			CNC(=O)Nc1ccc(-c2nc(N3CCOCC3)c3cnn(C4CCN(C)CC4)c3n2)cc1	733 nM
	7 nM	12 min			CC(=O)Nc1ccc(-c2nc(N3CCOCC3)c3cnn(C4CCN(Cc5cccnc5)CC4)c3n2)cc1	66 nM
		14 min			COC(=O)Nc1ccc(-c2nc(N3CCOCC3)c3cnn(C4CCN(Cc5cccnc5)CC4)c3n2)cc1	
	2450 nM				CC(=O)Nc1cccc(-c2nc(N3CCOCC3)c3cnn(C4CCN(Cc5ccccc5)CC4)c3n2)c1	
	0.2 nM	24 min		35 nM	COC(=O)N1CCC(n2ncc3c(N4CCOCC4)nc(-c4ccc(NC(=O)Nc5cccnc5)cc4)nc32)CC1	31 nM
